Laboratory results reported in patent US10101322B2, “Photoactivated chemical bleaching of dyes using borates” (GENERAL ELECTRIC COMPANY, priority 2015, dated 2018).
Entries after “also recorded” stand apart in the source; their conditions may differ.

How the values were obtained:
[1] = Eosin Y bleaching with borates in ethanol; conditions: 1 mM borate, 2 min irradiation, 100 W halogen lamp
Protocol: To a 2 mL solution of Eosin in ethanol (2.5×10^-5M solution), 2 mL of 1 mM of anionic borate (MBB), a neutral borate a, (Formula I) or a neutral borate b (Formula I) were added and the solution was irradiated for 1-2 minutes using 100 W halogen lamp. Absorbance at λmax of dye was measured to monitor photobleaching, and the results were plotted, as is shown in the bar graph plot of FIG. 7.

[2] = Stability of solid borate on exposure to air (1H NMR, colour)
[3] = Cy3 bleaching with borates in water; conditions: aqueous solution; in Example 2D 0.5 mM borate, 100 W halogen lamp, absorbance at 552 nm
Protocol: To a 2 mL solution of previously hydrolyzed Cy3 bis reactive dye in water (3.4×10^-5M solution), 2 mL of 0.5 mM solution of anionic borate (MBB), cationic borate (e′) or cationic borate (f′) were added and the solution was irradiated. […] FIG. 10 is a bar graph comparing bleaching kinetics of Cy3 by different borates.

[4] = Eosin Y bleaching with borates in water; conditions: aqueous solution; in Example 2A 0.5 mM borate, 1 minute, 100 W halogen lamp
Protocol: To a 2 mL solution of Eosin in water (2.26×10^-5M solution), 2 mL of 0.5 mM of cationic Borate (e′), Cationic Borate (f′) or anionic borate (MBB) were added, and the solution was irradiated for 1 minute using 100 W halogen lamp. […] FIG. 6 is a bar graph comparing bleaching kinetics of eosin by different borates MBB (a), e′ (b), and f′ (c).

[5] = Cy3 dye bleaching with borates in ethanol; conditions: 1 mM borate, 1 minute, 100 W halogen lamp, absorbance at 552 nm
Protocol: To a 2 mL solution of previously hydrolyzed Cy3 bisreactive dye (GE Healthcare) in ethanol (2.5×10^-5M solution), 2 mL of 1 mM solution of one of the following borates: anionic borate (MBB), neutral borate, a or b (Formula I), and cationic borates e′ or f′ in ethanol was added. Samples were irradiated for 1 minute using 100 W halogen lamp. The decrease in Cy3 absorbance at 552 nm was measured to monitor photobleaching, and the results were plotted, as is shown in FIG. 8. The bar graph compares the bleaching kinetics of Cy3 by different borates in ethanol.

[6] = system: Her2/CEP17 DNA FISH signal; experiment: DNA FISH signal bleaching and FISH on PICB bleached slides; design: species or system Human
Protocol: Slides were H&E stained and bleached as described above. Alternatively previously imaged and archived H&E slides were processed through the steps of decoverslipping, hydration, antigen retrieval, blocking and bleaching with f′ as described above for freshly stained H&E slides.
Slides were immersed in a pre-warmed 0.1% pepsin solution for 8 minutes then placed in room temperature PBS for 2 minutes. Samples were re-fixed in 4% formalin for 10 minutes then washed 2×5 minutes in PBS. Slides were dehydrated in ethanol series 50%, 70%, and 95%, 2 minutes each and allowed to dry on bench top for 10 minutes. Pre-mixed dual Her2/CEP17 probe was vortexed, spun, and added to samples. Samples were coverslipped and sealed with a rubber sealant per usual practice. After allowing rubber cement to cure for 10 minutes, probes were hybridized in Thermobrite cycler: 80° C. denaturation for 10 minutes followed by 37° C. incubation overnight. Rubber cement was removed and slides were decoverslipped in preheated 37° C. 2×SSC for 5 minutes. […] Slides were washed 2×2 minutes with 2×SSC, removed from buffer to dry, coverslipped with 4% DABCO in 90% glycerol/2×SSC, and imaged on an Olympus IX81 fluorescence microscope using a 40× objective with following exposure times: for DAPI (2 ms), spectrum green (CEP17-200 ms), and spectrum orange (Her2-400 ms). […]

[7] = Charge transfer complex formation between Eosin-Y and cationic borate (UV-Vis titration); type: physicochemical; conditions: without irradiation
Protocol: A 50 ul of 1 mM eosin solution in water was further diluted to 3 ml with water and to this was added 1 mM solution of f′ (Formula I) in water in 25 ul portions. UV-Vis spectrum was acquired after every 25 μL f′ addition.
This is believed to be due an electrostatic charge-transfer complex formulation between cationic borate: eosin-y complex.
This phenomenon may be attributed to formation of charge-transfer complex between anionic Eosin-Y and cationic Borate. The electrostatic charge transfer formation is responsible for quenching of Eosin-Y fluorescence.

[8] = Residual eosin bleaching (PICB) in H&E stained tissue sections; design: species or system Human; conditions: 0.15 mM f′, irradiation in presence of DABCO, three cycles
Protocol: Human breast tissue array samples were obtained as tissue slides embedded in paraffin from Clarient (Huntsville, Ala.). Slides were baked at 60° C. for 15 minutes and then washed with xylene (1×10 min) to remove paraffin.
All the slides were stained with hematoxylin and eosin and coverslipped following the standard procedures in the literature (IHC World LLC, Protocol Database, Hematoxylin and Eosin (H&E) Staining Protocol). After staining, the images were obtained as described below.
Bright field and Fluorescence images were taken for all the slides using Leica bright field microscope and Olympus IX81 fluorescence microscope (Olympus Co., Tokyo, Japan respectively. For fluorescence imaging the following excitation filters were used: eosin 500/40 nm, Cy3 550/40 nm and Cy5 650/40 nm.
After imaging, samples were decoverslipped by incubation in xylenes overnight and hydrated by washing in four solutions of ethanol with concentrations decreasing in the order of 100%, 95%, 70%, and 50% followed by a wash with 1× phosphate buffer saline (PBS, pH 7.4). After rehydration, the slides were washed with 1×PBS. A ten minute incubation in 0.3% Triton X-100 in PBS was performed for membrane permeabilization of the tissue, followed by a wash with 1×PBS.
Hydrated slides were treated with dual-buffer heat-induced epitope retrieval. […] Slides were imaged by brightfield and fluorescence microscopy. […]

Compound	order of Eosin photobleaching kinetics [1]	time to evidence of decomposition ([2]; exposure to air)	colour change on exposure to air ([2]; white solid stored inertly)	Cy3 bleaching kinetics compared to anionic borate (MBB) [3]	Eosin-Y photobleaching compared to anionic borate (MBB) [4]	Cy3 bleaching kinetics [5]	bleaching of DNA FISH signal [6]	bathochromic (red-shift) of the Eosin-Y peak ([7]; 1 mM f′ added in 25 ul portions to eosin in water)	colour change of eosin solution on borate addition ([7]; water)	decomposition ([2]; after 2 months of exposure to air)	degradation by 1 HNMR ([2]; solid form, exposure to air for over 5 weeks)	bleaching of residual eosin signal in tissue [8]
c1ccc(C[B-](c2ccccc2)(c2ccccc2)c2ccccc2)cc1 [MBB, monobenzyltriphenyl borate, reference compound]	cationic>neutral>anionic	< 10 min	becoming yellow in color immediately on exposure to air	–	–	–	–	–	–	–	–	–
C[N+](C)(C)c1ccc([B-](c2ccc([N+](C)(C)C)cc2)(C2CCCC2)C2CCCC2)cc1.[I-] [e′]	cationic>neutral>anionic	–	–	much faster bleaching kinetics	improved	performed well	–	–	–	–	–	–
COS(=O)(=O)[O-].C[N+](C)(C)c1ccc([B-](c2ccc([N+](C)(C)C)cc2)(C2CCCC2)C2CCCC2)cc1 [f′]	cationic>neutral>anionic	–	–	significantly improved; also recorded: much faster bleaching kinetics	significantly improved	performed well	erased	518 nm shifts to 523 nm	clear change in color to non-fluorescent pink	~2%	no degradation	efficient bleaching; also recorded: efficiently bleach eosin; also recorded: effective bleaching; also recorded: mostly removed
